System: patients with moderate to severe COPD
Test: Multi-centre, randomized, double-blind, placebo-controlled clinical study of nebulised ensifentrine in COPD (spirometry, FEV1)
Assay type: in vivo
Details: 3 mg BID by nebuliser
Protocol: A clinical study was conducted to determine the efficacy of ensifentrine in treating COPD compared with placebo. Ensifentrine was administered by nebuliser at a dose of 3 mg twice daily (BID) for 24 weeks. The study was a multi-centre, randomized, double-blind, parallel-group, placebo-controlled trial with around 800 patients and 5:3 randomization.
The study population included patients aged 40-80 years with moderate to severe COPD (FEV130%-70% p.n., FEVi/forced vital capacity [FVC] ratio <0.7, with mMRC ≥2). The randomization stratified (a) the use of stable background maintenance LAMA or LABA therapy use (approx. 50%. yes or no) and (b) cigarette smoking (current or former). Inhaled corticosteroid (ICS) maintenance therapy was permitted in up to 20% of patients under certain provisions.
The primary endpoint of the study was change from baseline in average FEV1 area under the curve (AUC)0-12h post-dose at week 12. Secondary endpoints of the study included: peak FEV1 over 4 hours post-dose at Week 12; morning trough FEV1 at Week 12; and other endpoints including moderate/severe COPD exacerbations frequency over 24 Weeks.
Baseline FEV1 is the mean of the two measurements taken before study medication on the day of first dosing, i.e. ≤40 minutes and just prior to dosing, pre-dose on day 1.
Average FEV1 AUCO-12h is defined as area under the curve over 12 hours of the FEV1, divided by 12 hours.
Morning trough FEV1 at Week 12 is defined as the FEVi assessed at 11.5 to 12 hours following the prior evening dose.
The investigational product and placebo were provided in 2.5 mL unit dose format in an ampule and administered via a nebuliser.

Question: With `COc1cc2c(cc1OC)-c1c/c(=N\c3c(C)cc(C)cc3C)n(CCNC(N)=O)c(=O)n1CC2` [Ensifentrine] as the molecule, how does the “Morning Trough FEV1 Week 12: CFB Least Squares Mean, mL (95% CI)” value (Week 12, FEV1 at 11.5 to 12 hours following the prior evening dose) read?
Answer: The value was 6.3 (−12.3, 24.9) mL.

Question: And the “Morning Trough FEV1 Week 12: Placebo-corrected CFB LS Mean Diff., mL (95% CI)” value (Week 12, versus placebo)?
Answer: The value was 48.9 (18.3, 79.5) mL.

Question: And the “Improvement in lung function in all subgroups (average FEV1 (AUC)0-12h at Week 12), result in words” value (all subgroups)?
Answer: The value was “All subgroups showed improvement in lung function with ensifentrine that was statistically significant”.

Question: What about the “Morning trough FEV1 at week 12, result in words” value (week 12) of the same molecule?
Answer: The value was “statistically significant effect”.

From patent US20240165055A1, “TREATMENT” (Verona Pharma PLC, priority 2022, published 2024)
